Results on four molecules are retold here after paper PMC8550792, “Evolution of kinase polypharmacology across HSP90 drug discovery” (Cell Chemical Biology, 2021).

Holding throughout (assay): biochemical
What all share (format): biochemical

In test [1] the target is T1, 382 unique human kinases (Homo sapiens, UniProt O43353).
T1 construct: purchased Reaction Biology (HotSpot contract assay)
Conditions: RIPK2, 10 uM; for remaining activity at 10 µM: read-out: % Enzyme Activity (relative to DMSO controls).

The target in test [2] is T2, 382 unique human kinases (Homo sapiens, UniProt P08581, F1200I).
T2 construct: purchased Reaction Biology (HotSpot contract assay)
Conditions: kinase c-MET (F1200I), compound 10 uM; for remaining activity at 10 µM: read-out: % Enzyme Activity (relative to DMSO controls).

Test [3] addresses T3, 382 unique human kinases (Homo sapiens, UniProt P14616).
T3 construct: purchased Reaction Biology (HotSpot contract assay)
Particulars: kinase IRR/INSRR, compound 10 uM; for remaining activity at 10 µM: read-out: % Enzyme Activity (relative to DMSO controls).

Test [4] has as its target T4, 382 unique human kinases (Homo sapiens, UniProt P29376).
T4 construct: purchased Reaction Biology (HotSpot contract assay)
Conditions: TYK1/LTK, 10 uM; for remaining activity at 10 µM: read-out: % Enzyme Activity (relative to DMSO controls).

Test [5] addresses T5, 382 unique human kinases (Homo sapiens, UniProt P30291).
T5 construct: purchased Reaction Biology (HotSpot contract assay)
Conditions: kinase WEE1, compound 10 uM; for remaining activity at 10 µM: read-out: % Enzyme Activity (relative to DMSO controls).

The target in test [6] is T6, 382 unique human kinases (Homo sapiens, UniProt P43403).
T6 construct: purchased Reaction Biology (HotSpot contract assay)
T6 sequence (P43403 1-619): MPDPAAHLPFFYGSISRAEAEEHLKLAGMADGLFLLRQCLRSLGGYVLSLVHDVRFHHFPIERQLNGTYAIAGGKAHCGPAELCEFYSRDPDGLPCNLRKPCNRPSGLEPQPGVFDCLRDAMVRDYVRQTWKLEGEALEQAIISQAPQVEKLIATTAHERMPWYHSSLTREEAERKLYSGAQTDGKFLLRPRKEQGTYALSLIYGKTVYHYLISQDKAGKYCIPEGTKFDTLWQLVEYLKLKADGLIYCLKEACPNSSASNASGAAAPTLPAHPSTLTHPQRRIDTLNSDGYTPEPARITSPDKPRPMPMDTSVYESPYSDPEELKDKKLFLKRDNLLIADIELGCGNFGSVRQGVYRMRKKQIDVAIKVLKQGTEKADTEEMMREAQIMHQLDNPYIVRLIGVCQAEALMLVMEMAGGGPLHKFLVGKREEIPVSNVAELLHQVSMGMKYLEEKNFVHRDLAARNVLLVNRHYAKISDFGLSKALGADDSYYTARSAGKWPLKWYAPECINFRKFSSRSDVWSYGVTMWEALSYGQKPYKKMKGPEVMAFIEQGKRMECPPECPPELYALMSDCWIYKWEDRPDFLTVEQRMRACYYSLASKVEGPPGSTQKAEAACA
Particulars: ZAP70, compound at 10 uM, duplicate values; for remaining activity at 10 µM: read-out: % Enzyme Activity (relative to DMSO controls).

The target in test [7] is T7, 382 unique human kinases (Homo sapiens, UniProt P78362).
T7 construct: purchased Reaction Biology (HotSpot contract assay)
Particulars: kinase SRPK2, compound 10 uM; for remaining activity at 10 µM: read-out: % Enzyme Activity (relative to DMSO controls).

For test [8], the target named is T8, 382 unique human kinases (Homo sapiens, UniProt Q00536).
T8 construct: purchased Reaction Biology (HotSpot contract assay)
T8 sequence (Q00536 whole entry): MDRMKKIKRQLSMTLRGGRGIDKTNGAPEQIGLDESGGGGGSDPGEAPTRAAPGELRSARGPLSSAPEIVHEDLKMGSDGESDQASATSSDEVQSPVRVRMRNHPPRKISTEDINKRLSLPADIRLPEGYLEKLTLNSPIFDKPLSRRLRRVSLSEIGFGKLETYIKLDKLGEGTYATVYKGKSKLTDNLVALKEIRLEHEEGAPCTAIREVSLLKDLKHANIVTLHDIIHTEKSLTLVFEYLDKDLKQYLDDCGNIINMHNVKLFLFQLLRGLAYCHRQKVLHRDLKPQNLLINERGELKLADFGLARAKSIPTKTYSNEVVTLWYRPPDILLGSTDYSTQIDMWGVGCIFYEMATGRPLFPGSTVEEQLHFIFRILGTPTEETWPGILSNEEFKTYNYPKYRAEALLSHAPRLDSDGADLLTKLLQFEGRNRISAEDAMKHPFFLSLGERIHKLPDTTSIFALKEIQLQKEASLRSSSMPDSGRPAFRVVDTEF
Particulars: CDK16/cyclin Y (PCTAIRE), 10 uM; for remaining activity at 10 µM: read-out: % Enzyme Activity (relative to DMSO controls).

Test [9] concerns the target T9, 382 unique human kinases (Homo sapiens, UniProt Q02779).
T9 construct: purchased Reaction Biology (HotSpot contract assay)
Conditions: kinase MLK2/MAP3K10, compound 10 uM; for remaining activity at 10 µM: read-out: % Enzyme Activity (relative to DMSO controls).

Test [10] concerns the target 382 unique human kinases (Homo sapiens, UniProt Q9H1R3). Conditions: kinase MLCK2/MYLK2, compound 10 uM; for remaining activity at 10 µM: read-out: % Enzyme Activity (relative to DMSO controls).
Test [11] concerns the target T10, 382 unique human kinases (Homo sapiens, UniProt Q9NR20).
T10 construct: purchased Reaction Biology (HotSpot contract assay)
T10 sequence (Q9NR20 1-520): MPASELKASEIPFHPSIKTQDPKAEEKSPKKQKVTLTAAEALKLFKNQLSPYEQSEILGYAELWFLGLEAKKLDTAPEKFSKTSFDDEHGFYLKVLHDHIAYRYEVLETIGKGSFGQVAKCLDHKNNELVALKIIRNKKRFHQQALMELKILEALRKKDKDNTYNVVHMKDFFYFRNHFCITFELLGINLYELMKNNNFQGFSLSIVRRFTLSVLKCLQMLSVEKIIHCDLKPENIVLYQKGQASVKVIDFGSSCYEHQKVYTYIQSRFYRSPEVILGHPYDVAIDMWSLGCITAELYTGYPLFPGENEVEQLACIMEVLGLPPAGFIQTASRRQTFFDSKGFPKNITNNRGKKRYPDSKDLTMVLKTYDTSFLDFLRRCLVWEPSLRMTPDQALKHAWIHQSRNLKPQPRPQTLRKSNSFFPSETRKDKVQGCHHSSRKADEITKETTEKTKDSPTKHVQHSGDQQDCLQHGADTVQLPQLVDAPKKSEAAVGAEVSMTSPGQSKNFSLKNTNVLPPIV
Particulars: DYRK4, 10 uM; for remaining activity at 10 µM: read-out: % Enzyme Activity (relative to DMSO controls).

Test [12] concerns the target T11, 382 unique human kinases (Homo sapiens, UniProt O75716).
T11 construct: purchased Reaction Biology (HotSpot contract assay)
Conditions: STK16, [ATP] 5 µM, compound 10 uM; for remaining activity at 10 µM: read-out: % Enzyme Activity (relative to DMSO controls).

The target of test [13] is T12, 382 unique human kinases (Homo sapiens, UniProt P00519, H396P).
T12 construct: purchased Reaction Biology (HotSpot contract assay)
Particulars: ABL1 (H396P), [ATP] 15 µM, compound 10 uM; for remaining activity at 10 µM: read-out: % Enzyme Activity (relative to DMSO controls).

In test [14] the target is T13, 382 unique human kinases (Homo sapiens, UniProt P00519, M351T).
T13 construct: purchased Reaction Biology (HotSpot contract assay)
Particulars: ABL1 (M351T), [ATP] 10 µM, compound 10 uM; for remaining activity at 10 µM: read-out: % Enzyme Activity (relative to DMSO controls).

Test [15] addresses T14, 382 unique human kinases (Homo sapiens, UniProt P42684).
T14 construct: purchased Reaction Biology (HotSpot contract assay)
Conditions: ABL2/ARG, [ATP] 30 µM.

In test [16] the target is T15, 382 unique human kinases (Homo sapiens, UniProt P57059).
T15 construct: purchased Reaction Biology (HotSpot contract assay)
T15 sequence (P57059 whole entry): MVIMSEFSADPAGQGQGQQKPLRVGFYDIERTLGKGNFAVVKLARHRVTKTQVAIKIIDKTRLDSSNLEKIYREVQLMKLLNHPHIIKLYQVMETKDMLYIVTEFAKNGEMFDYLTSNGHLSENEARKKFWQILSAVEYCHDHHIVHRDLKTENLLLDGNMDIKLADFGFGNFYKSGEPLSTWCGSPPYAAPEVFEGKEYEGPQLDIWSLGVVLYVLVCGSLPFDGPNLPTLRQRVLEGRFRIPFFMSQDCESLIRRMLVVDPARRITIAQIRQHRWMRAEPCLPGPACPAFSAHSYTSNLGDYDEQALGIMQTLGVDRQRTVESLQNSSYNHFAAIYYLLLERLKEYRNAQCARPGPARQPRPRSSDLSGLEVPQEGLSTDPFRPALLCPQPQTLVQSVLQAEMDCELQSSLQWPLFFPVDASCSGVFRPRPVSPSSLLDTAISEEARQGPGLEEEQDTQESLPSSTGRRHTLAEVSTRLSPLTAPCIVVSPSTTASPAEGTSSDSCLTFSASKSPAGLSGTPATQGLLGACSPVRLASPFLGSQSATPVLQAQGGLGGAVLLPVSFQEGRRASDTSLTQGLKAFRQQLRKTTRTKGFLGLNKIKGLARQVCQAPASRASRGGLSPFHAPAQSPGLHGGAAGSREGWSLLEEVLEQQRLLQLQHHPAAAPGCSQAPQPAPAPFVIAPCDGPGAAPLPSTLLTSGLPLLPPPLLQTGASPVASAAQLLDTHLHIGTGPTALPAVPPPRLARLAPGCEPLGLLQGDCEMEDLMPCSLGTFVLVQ
Conditions: SIK1, [ATP] 30 µM.

Test [17] has as its target T16, 382 unique human kinases (Homo sapiens, UniProt Q13464).
T16 construct: purchased Reaction Biology (HotSpot contract assay)
Conditions: ROCK1, 10 uM; for remaining activity at 10 µM: read-out: % Enzyme Activity (relative to DMSO controls).

The target of test [18] is T17, 382 unique human kinases (Homo sapiens, UniProt Q86UE8).
T17 construct: purchased Reaction Biology (HotSpot contract assay)
T17 sequence (Q86UE8 whole entry): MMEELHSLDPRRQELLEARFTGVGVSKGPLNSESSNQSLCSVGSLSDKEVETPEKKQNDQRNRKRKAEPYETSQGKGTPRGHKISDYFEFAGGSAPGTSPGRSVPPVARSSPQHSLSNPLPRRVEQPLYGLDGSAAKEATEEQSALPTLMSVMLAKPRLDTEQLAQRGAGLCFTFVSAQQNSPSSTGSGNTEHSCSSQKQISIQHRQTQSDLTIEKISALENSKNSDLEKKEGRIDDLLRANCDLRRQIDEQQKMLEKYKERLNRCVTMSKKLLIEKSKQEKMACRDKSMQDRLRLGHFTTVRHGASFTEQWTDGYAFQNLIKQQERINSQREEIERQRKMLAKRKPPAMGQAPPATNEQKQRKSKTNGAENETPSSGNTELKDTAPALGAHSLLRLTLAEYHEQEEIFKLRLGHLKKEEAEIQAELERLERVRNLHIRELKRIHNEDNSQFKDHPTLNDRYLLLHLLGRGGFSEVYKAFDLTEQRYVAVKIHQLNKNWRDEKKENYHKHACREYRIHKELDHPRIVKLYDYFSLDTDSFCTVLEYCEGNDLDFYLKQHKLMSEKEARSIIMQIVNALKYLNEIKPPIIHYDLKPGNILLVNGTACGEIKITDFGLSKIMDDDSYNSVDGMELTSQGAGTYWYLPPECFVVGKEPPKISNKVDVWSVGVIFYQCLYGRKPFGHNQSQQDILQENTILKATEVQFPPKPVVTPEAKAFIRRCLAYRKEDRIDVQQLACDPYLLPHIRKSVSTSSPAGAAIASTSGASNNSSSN
Particulars: TLK2, 10 uM; for remaining activity at 10 µM: read-out: % Enzyme Activity (relative to DMSO controls).

The target in test [19] is T18, 382 unique human kinases (Homo sapiens, UniProt Q9NQU5).
T18 construct: purchased Reaction Biology (HotSpot contract assay)
Conditions: PAK6, 10 uM; for remaining activity at 10 µM: read-out: % Enzyme Activity (relative to DMSO controls).

[20] abbreviates: compound 1 uM, read-out: % Enzyme Activity (relative to DMSO controls).
[21] abbreviates: compound 10 uM, read-out: % Enzyme Activity (relative to DMSO controls).

T9 sequence (Q02779 whole entry): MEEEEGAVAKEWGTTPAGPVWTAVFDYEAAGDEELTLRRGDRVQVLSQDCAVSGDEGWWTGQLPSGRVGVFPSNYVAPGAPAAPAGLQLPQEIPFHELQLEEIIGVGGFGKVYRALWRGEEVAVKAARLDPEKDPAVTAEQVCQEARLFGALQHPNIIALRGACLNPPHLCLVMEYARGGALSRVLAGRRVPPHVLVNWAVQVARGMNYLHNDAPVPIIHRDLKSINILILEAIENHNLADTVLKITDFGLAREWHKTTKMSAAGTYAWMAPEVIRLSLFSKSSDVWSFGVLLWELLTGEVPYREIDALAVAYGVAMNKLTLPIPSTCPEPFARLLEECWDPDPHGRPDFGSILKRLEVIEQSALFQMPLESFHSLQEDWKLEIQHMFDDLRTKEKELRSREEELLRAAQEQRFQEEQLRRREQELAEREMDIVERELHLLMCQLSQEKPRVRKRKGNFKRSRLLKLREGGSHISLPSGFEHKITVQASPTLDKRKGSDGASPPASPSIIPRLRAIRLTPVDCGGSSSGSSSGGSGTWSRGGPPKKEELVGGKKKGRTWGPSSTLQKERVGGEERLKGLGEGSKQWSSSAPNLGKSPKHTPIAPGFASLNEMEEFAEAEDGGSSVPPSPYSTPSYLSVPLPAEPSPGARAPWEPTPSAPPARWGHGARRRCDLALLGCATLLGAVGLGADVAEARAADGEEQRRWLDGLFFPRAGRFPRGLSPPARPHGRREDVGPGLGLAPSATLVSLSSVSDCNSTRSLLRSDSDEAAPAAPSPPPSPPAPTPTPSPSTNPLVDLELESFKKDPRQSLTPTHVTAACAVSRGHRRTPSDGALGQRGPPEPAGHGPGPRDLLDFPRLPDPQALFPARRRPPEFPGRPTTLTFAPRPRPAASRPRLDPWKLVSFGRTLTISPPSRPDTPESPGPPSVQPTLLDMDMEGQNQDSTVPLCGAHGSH
T4 sequence (P29376 17-864): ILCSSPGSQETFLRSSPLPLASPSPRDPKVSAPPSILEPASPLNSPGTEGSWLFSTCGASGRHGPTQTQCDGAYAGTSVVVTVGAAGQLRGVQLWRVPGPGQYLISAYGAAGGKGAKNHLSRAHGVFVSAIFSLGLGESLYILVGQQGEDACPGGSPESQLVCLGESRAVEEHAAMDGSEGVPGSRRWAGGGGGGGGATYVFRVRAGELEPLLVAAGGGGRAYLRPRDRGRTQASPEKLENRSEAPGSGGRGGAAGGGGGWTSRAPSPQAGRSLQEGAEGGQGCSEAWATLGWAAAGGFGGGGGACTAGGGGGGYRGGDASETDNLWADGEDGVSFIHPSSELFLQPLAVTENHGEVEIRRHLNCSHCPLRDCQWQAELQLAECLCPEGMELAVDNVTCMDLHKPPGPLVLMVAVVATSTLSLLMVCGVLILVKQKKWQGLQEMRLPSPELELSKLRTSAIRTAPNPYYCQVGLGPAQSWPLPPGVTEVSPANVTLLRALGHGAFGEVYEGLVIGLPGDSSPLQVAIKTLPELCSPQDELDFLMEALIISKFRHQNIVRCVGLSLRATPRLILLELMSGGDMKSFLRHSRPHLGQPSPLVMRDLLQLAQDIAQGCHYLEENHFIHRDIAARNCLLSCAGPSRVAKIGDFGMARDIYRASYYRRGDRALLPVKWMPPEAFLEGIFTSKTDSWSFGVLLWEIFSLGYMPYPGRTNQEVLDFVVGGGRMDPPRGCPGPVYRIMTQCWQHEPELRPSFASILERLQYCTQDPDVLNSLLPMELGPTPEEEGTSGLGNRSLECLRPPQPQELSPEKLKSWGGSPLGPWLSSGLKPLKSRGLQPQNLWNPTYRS
Sequence of 382 unique human kinases (Homo sapiens, UniProt Q9H1R3) (Q9H1R3 whole entry): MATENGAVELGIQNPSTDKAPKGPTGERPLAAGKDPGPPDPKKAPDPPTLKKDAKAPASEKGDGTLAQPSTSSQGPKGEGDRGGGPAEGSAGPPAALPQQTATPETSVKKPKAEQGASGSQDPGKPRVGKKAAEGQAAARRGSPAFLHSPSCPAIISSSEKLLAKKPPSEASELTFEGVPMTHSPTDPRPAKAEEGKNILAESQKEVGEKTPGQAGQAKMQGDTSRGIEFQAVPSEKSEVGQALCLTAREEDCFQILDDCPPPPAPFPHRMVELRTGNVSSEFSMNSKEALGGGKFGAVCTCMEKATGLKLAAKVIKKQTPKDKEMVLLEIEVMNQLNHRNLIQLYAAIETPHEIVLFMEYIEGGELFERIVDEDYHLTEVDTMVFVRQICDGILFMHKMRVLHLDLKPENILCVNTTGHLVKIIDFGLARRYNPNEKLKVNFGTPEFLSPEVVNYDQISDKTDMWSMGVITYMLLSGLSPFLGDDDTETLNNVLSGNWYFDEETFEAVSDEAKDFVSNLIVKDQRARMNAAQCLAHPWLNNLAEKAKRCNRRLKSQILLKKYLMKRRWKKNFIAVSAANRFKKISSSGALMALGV
T11 sequence (O75716 whole entry): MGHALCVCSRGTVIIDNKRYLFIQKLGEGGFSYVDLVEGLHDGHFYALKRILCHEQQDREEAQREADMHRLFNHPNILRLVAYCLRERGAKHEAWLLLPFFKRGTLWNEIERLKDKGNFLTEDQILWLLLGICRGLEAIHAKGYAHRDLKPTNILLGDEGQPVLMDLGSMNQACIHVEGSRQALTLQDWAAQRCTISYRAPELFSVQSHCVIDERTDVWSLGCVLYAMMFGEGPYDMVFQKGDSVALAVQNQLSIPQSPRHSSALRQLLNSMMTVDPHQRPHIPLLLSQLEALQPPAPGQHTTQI

Regarding `CC(C)c1cc(-c2n[nH]c(=O)n2-c2ccc3c(ccn3C)c2)c(O)cc1O` [Ganetespib (STA9090)], the remaining activity at 10 µM on 382 unique human kinases [1] was 71.3%; at 382 unique human kinases [2] it was 86.5%; at 382 unique human kinases [3], 85.7%; at 382 unique human kinases [4], 73.6%; on 382 unique human kinases [5] it was 87.2%; on 382 unique human kinases [6] it was 108%. The remaining activity at 10 µM at 382 unique human kinases [7] is 89.8%; at 382 unique human kinases [8] it was 78%; on 382 unique human kinases [9] it was 98.6%; on 382 unique human kinases [10], 80.2%; at 382 unique human kinases [11], 96.8%.

Take `CC(C)c1cc(-c2n[nH]c(=O)n2-c2ccc3c(ccn3C)c2)c(O)cc1O` [Ganetespib]: the remaining activity at 10 µM at 382 unique human kinases [12] is 32.4%; at 382 unique human kinases [13], 2.43%; at 382 unique human kinases [14] it was 1.72%; on 382 unique human kinases [15] (setting [21]) it was 1.12%; at 382 unique human kinases [16] (setting [21]) it was 11.4%; on 382 unique human kinases [17] it was 91.4%. Besides, the remaining activity at 10 µM at 382 unique human kinases [18] amounted to 91.9%; at 382 unique human kinases [19], 106%. In addition, the remaining activity at 1 µM on 382 unique human kinases [15] (setting [20]) is 12.9%; at 382 unique human kinases [16] (setting [20]), 75.9%.

`CCNC(=O)c1noc(-c2cc(C(C)C)c(O)cc2O)c1-c1ccc(CN2CCOCC2)cc1` [Luminespib (AUY-922)]: the “% Enzyme Activity (relative to DMSO controls)” value on 382 unique human kinases [1] is listed as 109.60%; at 382 unique human kinases [2] it was 100.14%; on 382 unique human kinases [3], 101.61%; at 382 unique human kinases [4], 97.76%; on 382 unique human kinases [5] it was 114.11%; at 382 unique human kinases [6], 104.43%. Moreover, the “% Enzyme Activity (relative to DMSO controls)” value came out at 97.52% on 382 unique human kinases [7]; 100.35% on 382 unique human kinases [8]; 89.74% on 382 unique human kinases [9]; 91.17% on 382 unique human kinases [10]; 63.33% at 382 unique human kinases [11]. Moreover, the remaining activity at 10 µM at 382 unique human kinases [1] came out at 112%; on 382 unique human kinases [2], 100%; at 382 unique human kinases [3], 102%; on 382 unique human kinases [4], 98.2%; at 382 unique human kinases [5] it was 116%; on 382 unique human kinases [6], 105%. For the same molecule, the remaining activity at 10 µM is 99.5% on 382 unique human kinases [7]; 100% at 382 unique human kinases [8]; 91.1% on 382 unique human kinases [9]; 95.1% on 382 unique human kinases [10]; 66.1% at 382 unique human kinases [11].

On to `CCNC(=O)c1noc(-c2cc(C(C)C)c(O)cc2O)c1-c1ccc(CN2CCOCC2)cc1` [Luminespib], for which the “% Enzyme Activity (relative to DMSO controls)” value at 382 unique human kinases [12] was 98.01%; on 382 unique human kinases [13] it was 6.11%; on 382 unique human kinases [14] it was 5.21%; on 382 unique human kinases [15] (compound 10 uM), 7.82%; at 382 unique human kinases [16] (compound 10 uM) it was 79.13%; on 382 unique human kinases [17] it was 95.76%. In addition, the “% Enzyme Activity (relative to DMSO controls)” value on 382 unique human kinases [18] amounted to 97.34%; at 382 unique human kinases [19] it was 95.70%. Further, the remaining activity at 10 µM on 382 unique human kinases [12] was found to be 98.4%; at 382 unique human kinases [13], 6.74%; on 382 unique human kinases [14], 5.53%; on 382 unique human kinases [15] (setting [21]) it was 8.16%; at 382 unique human kinases [16] (setting [21]), 80.3%; on 382 unique human kinases [17], 96.4%. For the same molecule, the remaining activity at 10 µM came to 98.7% on 382 unique human kinases [18] and 97.2% on 382 unique human kinases [19].
